# Measurements taken from the NIST ThermoML archive (doi:10.1016/j.fluid.2016.02.028).
# Numbers after ± are expanded uncertainties.
# Settings: 298.15 K; 101.33 kPa; Liquid; Vibrating tube method
row,SMILES,mass density [kg/m3]
1,CCCCCCCC [octane],698.86 ± 2
2,CCCC[N+](C)(CCCC)CCCC.O=S(=O)([N-]S(=O)(=O)C(F)(F)F)C(F)(F)F [tributylmethylammonium bis((trifluoromethyl)sulfonyl)imide],1261.65 ± 6
3,CCCCCCCCCC [decane],726.15 ± 2
4,c1ccccc1 [benzene],873.71 ± 2
